Laboratory results reported in PMC11897554, “Pharmacokinetic effect of disease severity and use of extracorporeal membrane oxygenation in critically ill Asian patients receiving vancomycin” (Frontiers in Pharmacology, 2025).

Assays:
[1] = ref Chung et al., 2021, Matusik et al., 2022, cited from earlier work
Excerpt: In pediatric patients, vancomycin pharmacokinetics can be highly variable due to age-related differences in drug absorption, distribution, metabolism, and elimination. Population pharmacokinetic models provide quantitative and semi-quantitative frameworks for optimizing dosing regimens. They achieve this by identifying sources of variability, by determining factors that influence the pharmacokinetic behavior of the drug, and quantifying the magnitude of unexplained variability ([Stockmann et al., 2013]).

[2] = Population pharmacokinetic analysis (nonlinear mixed-effects, one-compartment) of vancomycin therapeutic drug monitoring data in critically ill patients
Excerpt: This retrospective study used medical records of critically ill patients hospitalized in Kaohsiung Veterans General Hospital, Taiwan, from 1 January 2014, to 31 December 2016. The study was approved by the Kaohsiung Veteran General Hospital Institutional Review Board (certificate number VGHKS18-CT9-12). A waiver of informed consent was granted as the data were collected retrospectively from medical records. The identity of the study subjects was masked through the use of a study identifier. Data were de-identified. […] Patients were excluded if vancomycin concentrations in blood could not be detected or if there were incomplete data on the vancomycin regimen. As per the study protocol the blood samples were collected >1 h after the end of dose administration (peak concentration) and within 30 min before the next dose (trough concentration). Trough and peak concentrations obtained after administering at least four equal repeated doses were referred to as the steady-state concentrations.
Data abstracted included height, weight, age, principal diagnosis at admission, whether an open-heart surgery had been performed, serum creatinine concentrations, whether extracorporeal membrane oxygenation (ECMO), and vancomycin dosage, frequency, route, speed, and administration time indications for the use of vancomycin. The estimated glomerular filtration rate (eGFR) was calculated using the bedside Schwartz equation from serum creatinine values ([Schwartz et al., 2009]). There were nine distinct diagnostic categories at admission. To improve simplicity and interpretability, diagnoses were grouped into two major categories based on clinical differences, depending on the severity of the bacterial infection for which vancomycin was used. The first category (severe infections) corresponded to people diagnosed with pneumonia/bacteremia/osteomyelitis/meningitis/deep tissue infection, and the second category (mild infections) included people diagnosed with cellulitis/surgical prevention/neutropenic fever/others.
Vancomycin plasma concentrations were transformed into their natural logarithms. The corresponding concentration versus time plot was placed on a logarithmic scale for all the subjects to address normality. The concentration-time profiles were characterized using nonlinear mixed-effects modeling using Phoenix NLME (Certara Inc. version 8.2). Concentrations below the lower limit of detection (LLOD) were excluded from the analysis. Concentrations below the lower limit of quantitation (LLOQ) were divided by two to obtain an unbiased conservative estimate of the true concentration. One- and two-compartment models with first-order elimination with additive, proportional, and combined error models were considered for the base model. The between-subject variability was normally distributed with a mean equal to 0 and variance equal to ω^2. The allometric scaling exponent for clearance and volume of distribution were fixed at 0.75 and 1, respectively ([Holford, 1996]; [Chung et al., 2021]). The models were run with the FOCE-ELS algorithm and simple run mode. […] Weight was applied a priori to the base model. A sensitivity analysis was performed after the final structural model selection, and the initial estimates were changed to evaluate the robustness of the model.
The clinically relevant categorical covariates that were investigated included the major diagnosis category/infection severity, extracorporeal membrane oxygenation (ECMO) status, and surgery status. Covariate investigation was conducted in stepwise covariate search run mode in Phoenix (Phoenix®, version 8.2, Certara, Princeton, NJ) using stepwise forward inclusion followed by stepwise backward elimination. The models were assessed by a reduction or increase in the objective function value (OFV), equal to −2*log likelihood. During forward selection, any covariate that reduced the OFV by > 3.84 [p < 0.05, χ2 distribution with 1 degree of freedom (df)] was significant.

[3] = within 24 h; ref Shimamoto et al., 2021; Le et al., 2013; cited from earlier work
[4] = calculated from final model, median weight, ηCl = 0
[5] = non-parametric bootstrap of final model, 1,000 datasets
[6] = non-parametric bootstrap, 1,000 datasets

## CN[C@H](CC(C)C)C(=O)N[C@H]1C(=O)N[C@@H](CC(N)=O)C(=O)N[C@H]2C(=O)N[C@H]3C(=O)N[C@H](C(=O)N[C@H](C(=O)O)c4cc(O)cc(O)c4-c4cc3ccc4O)[C@H](O)c3ccc(c(Cl)c3)Oc3cc2cc(c3O[C@@H]2O[C@H](CO)[C@@H](O)[C@H](O)[C@H]2O[C@H]2C[C@](C)(N)[C@H](O)[C@H](C)O2)Oc2ccc(cc2Cl)[C@H]1O [vancomycin]
[1]; dialysis mode hemodiafiltration
  half-life, HDF: 2.1 h
[1]; dialysis mode hemodialysis
  half-life, HD: 3.5 h
[2]; DIAG = 0 (pneumonia/bacteremia/osteomyelitis/meningitis/deep tissue infection), calculated from final model, median weight (12.6 kg), ηCl = 0
  Clearance value, patients with severe infections: 1.03 L/h
[2]; DIAG = 1 (cellulitis/surgical prevention/neutropenic fever/others), calculated from final model, median weight (12.6 kg), ηCl = 0
  Clearance value, patients with mild infections: 0.63 L/h
[2]; ECMO = 0, calculated from final model for an individual of median weight (12.6 kg), ηCl = 0
  Clearance value, patients without ECMO: 1.03 L/h
[2]; [4]
  % difference (reduction) in clearance, ECMO versus non-ECMO patients: ∼56%
  % difference (reduction) in clearance, mild versus severe infections: ∼39%
[2]; [5]
  tvCL, bootstrap median: 1.01 L/h
  tvV, bootstrap median: 11.85 L
[2]; [6]
  dCldDiag, bootstrap median: −0.48
  dCldECMO, bootstrap median: −0.79
[2]; one-compartment model, first-order elimination, proportional error, Phoenix NLME FOCE-ELS, IV infusion, 90 critically ill Asian patients, 263 samples, typical individual 12.6 kg, allometric exponent 1 fixed
  tvV, typical value of volume of distribution, final model estimate: 11.61 L
[3]
  administered dose excreted unchanged: approximately 90%
